{"source": "patent US20030219866A1", "about": "“Stem cell-like cells” (priority 2000, published 2003)", "format_in_all_cases": "cell-based", "key": {"[1]": {"system": "human Mesenchymal Stem Cells", "experiment": "OCT4 expression after TSA treatment in hMSC (RT-PCR)", "design": "key to OCT4 expression: +/− expression detectable; (+) clear expression; (++ strong expression)", "details": "for OCT4 expression: hMSC, RT-PCR", "description": "(§1) (a) RNA isolation and eDNA synthesis. At the time of harvest, medium was aspirated and cells were lyzed using Ultraspec™ (Biotecx) or Trizol® (Gibco BRL). RNA was isolated according to the instructions of the suppliers. RNA concentration was determined by measuring OD260 and equal amounts of RNA of the indicated cell lines were subjected to conversion into cDNA. RNA was reversed transcribed using random primers and 15 units M-MuLV (Promega) in a reaction mixture containing 4 μl 25 mM MgCl2, 2 μl of each of the four dNTPs at 10 mM and 0.5 μl RNasin (Promega) in a total volume of 20 μl. RNA and 0.5 μg random hexamers were pre-incubated for 10 minutes at 55-60°. Mixtures were incubated at 37° C. for 1 hour.\n(§2) (b) PCR reactions. PCR was were performed using 2 μl cDNA, 2.5 μl 10× SuperTaq buffer (without magnesium), 0.25 μl forward primer, 0.25 μl reverse primer, 0.50 μl 10 mM dNTPs, 1.25 Units of SuperTaq polymerase. In the case of β2-microglobulin 1.5 mM MgCl2 was added to the reaction mixture. For mouse UTF1 PCR, normal Taq polymerase (Roche) was used with a buffer containing MgCl2. The conditions for the PCR reaction were: 5 minutes 94° C.; 28 cycles of 30 seconds 94° C., 30 seconds 60° C. and 30 seconds 72° C.; 10 minutes 72° C., using a PTC-200, Peltier Thermal cycler. PCR-fragments were run on a 2% agarose gel and visualized by ethidium bromide staining.\n(§3) HDAC activity is inhibited by Trichostatin A (TSA). Human mesenchymal stem cells and mouse and human neuronal progenitor cells were treated by TSA at concentration of 10 and 50 ng/ml. After 24 and 48 hours, OCT4 expression was analyzed by RT-PCR."}, "[2]": {"system": "human Neural Progenitor Cells", "experiment": "OCT4 expression after TSA treatment in hNPC (RT-PCR)", "design": "key to OCT4 expression: +/− expression detectable; (+) clear expression; (++ strong expression)", "details": "for OCT4 expression: hNPC, RT-PCR", "description": "as §1, §2, §3"}, "[3]": {"system": "mouse Neural Progenitor Cells", "experiment": "OCT4 expression after TSA treatment in mNPC (RT-PCR)", "design": "key to OCT4 expression: +/− expression detectable; (+) clear expression; (++ strong expression)", "details": "for OCT4 expression: mNPC (eGFP/bcl2), RT-PCR", "description": "as §1, §2, §3"}, "TSA treated cells": {"system": "TSA treated cells", "experiment": "UTF1 expression and TGF-beta/activin/BMP responsiveness of TSA treated cells"}}, "data": [{"compound": "CC(/C=C/C(=O)NO)=C\\[C@@H](C)C(=O)c1ccc(N(C)C)cc1", "note": "[TSA, Trichostatin A]", "values": [{"measurement": "OCT4 expression", "setting": "[1]; TSA 10 ng/ml, 24 hours", "result": "+"}, {"measurement": "OCT4 expression", "setting": "[1]; TSA 10 ng/ml, 48 hours", "result": "++"}, {"measurement": "OCT4 expression", "setting": "[1]; TSA 50 ng/ml, 24 hours", "result": "+"}, {"measurement": "OCT4 expression", "setting": "[1]; TSA 50 ng/ml, 48 hours", "result": "++"}, {"measurement": "SSEA4 expression", "setting": "[1]; human MSC, TSA treated, in parallel with upregulation of OCT4", "result": "increased"}, {"measurement": "expression of OCT4", "setting": "[1]; human MSC, TSA treatment for 24 to 48 hours", "result": "enhances"}, {"measurement": "OCT4 expression", "setting": "[2]; TSA 10 ng/ml, 24 hours", "result": "+"}, {"measurement": "OCT4 expression", "setting": "[2]; TSA 10 ng/ml, 48 hours", "result": "++"}, {"measurement": "OCT4 expression", "setting": "[2]; TSA 50 ng/ml, 24 hours", "result": "+"}, {"measurement": "SSEA4 expression", "setting": "[2]; human Neural Progenitor Cells, TSA treated, in parallel with upregulation of OCT4", "result": "increased"}, {"measurement": "expression of OCT4", "setting": "[2]; human Neural Progenitor Cells, TSA treatment for 24 to 48 hours", "result": "enhances"}, {"measurement": "OCT4 expression", "setting": "[3]; TSA 10 ng/ml, 24 hours", "result": "+"}, {"measurement": "OCT4 expression", "setting": "[3]; TSA 10 ng/ml, 48 hours", "result": "++"}, {"measurement": "OCT4 expression", "setting": "[3]; TSA 50 ng/ml, 24 hours", "result": "+"}, {"measurement": "expression of OCT4", "setting": "[3]; mouse neural progenitor cells, TSA treatment for 24 to 48 hours", "result": "enhances"}, {"measurement": "TGF-beta, activin and BMP responsiveness", "setting": "TSA treated cells", "result": "reduction"}, {"measurement": "expression of UTF1", "setting": "TSA treated cells", "result": "increased"}]}]}
